Measurements from paper PMC7570662, “In Vivo Pharmacokinetic Analysis Utilizing Non-Targeted and Targeted Mass Spectrometry and In Vitro Assay against Transient Receptor Potential Channels of Maobushisaishinto and Its Constituent Asiasari Radix” (Molecules, 2020).

What was measured:
human TRPA1 = target: T1, human TRPA1 (Homo sapiens, UniProt O75762); test: Ca2+ influx assay in TRPA1-expressing T-REx-293 cells; format: cell-based; conditions: 10 µmol/L test compound, relative to 20 µmol/L allyl isothiocyanate; for activation at 10 µM: T-REx-293, read-out: % of Activation Compared to Positive Control against Each Subfamily of TRP Channel TRPA1
T1 construct: Each full-length human TRPA1, TRPV1, TRPV4, and TRPM8 coding regions were introduced into a pcDNA4/TO vector; expressed in transfected cells; host or cells: T-REx-293 cells (tetracycline-induced, pcDNA4/TO vector)
T1 sequence (O75762 whole entry): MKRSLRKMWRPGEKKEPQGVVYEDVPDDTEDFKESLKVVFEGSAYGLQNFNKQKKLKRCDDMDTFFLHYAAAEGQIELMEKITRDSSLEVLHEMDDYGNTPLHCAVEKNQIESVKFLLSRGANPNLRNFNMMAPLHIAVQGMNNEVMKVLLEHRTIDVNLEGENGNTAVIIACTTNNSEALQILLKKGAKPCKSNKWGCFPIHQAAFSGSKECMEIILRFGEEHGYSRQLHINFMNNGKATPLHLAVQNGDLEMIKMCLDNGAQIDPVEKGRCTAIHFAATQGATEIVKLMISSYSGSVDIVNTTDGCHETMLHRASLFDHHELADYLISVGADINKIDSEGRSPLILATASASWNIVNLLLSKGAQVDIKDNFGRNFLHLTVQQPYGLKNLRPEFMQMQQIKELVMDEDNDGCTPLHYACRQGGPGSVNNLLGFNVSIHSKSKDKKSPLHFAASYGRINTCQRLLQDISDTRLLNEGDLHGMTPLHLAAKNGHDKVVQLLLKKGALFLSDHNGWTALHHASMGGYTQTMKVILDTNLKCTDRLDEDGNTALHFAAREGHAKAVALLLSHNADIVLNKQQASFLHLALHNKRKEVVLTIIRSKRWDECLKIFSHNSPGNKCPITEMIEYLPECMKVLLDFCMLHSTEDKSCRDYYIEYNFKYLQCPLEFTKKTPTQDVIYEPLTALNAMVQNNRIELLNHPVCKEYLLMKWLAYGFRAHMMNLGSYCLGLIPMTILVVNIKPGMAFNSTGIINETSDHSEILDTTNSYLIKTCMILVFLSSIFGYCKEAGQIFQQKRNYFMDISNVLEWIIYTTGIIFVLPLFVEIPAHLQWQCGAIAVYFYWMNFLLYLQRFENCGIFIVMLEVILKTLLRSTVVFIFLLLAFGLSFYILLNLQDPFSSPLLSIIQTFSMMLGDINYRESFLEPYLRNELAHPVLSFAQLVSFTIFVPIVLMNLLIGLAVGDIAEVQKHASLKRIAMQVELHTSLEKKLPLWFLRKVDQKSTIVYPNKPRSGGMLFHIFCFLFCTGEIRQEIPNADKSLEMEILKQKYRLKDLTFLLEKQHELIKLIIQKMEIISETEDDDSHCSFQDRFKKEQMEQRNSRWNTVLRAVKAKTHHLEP
Experimental: (§1) Each full-length human TRPA1, TRPV1, TRPV4, and TRPM8 coding regions were introduced into a pcDNA4/TO vector (Thermo Fisher Scientific, Waltham, MA, USA) and transfected into T-REx-293 cells (Thermo Fisher Scientific) to obtain stable cell lines expressing human TRPA1, TRPV1, TRPV4, and TRPM8. Cells were cultured in DMEM with 10% FBS, 4 mmol/L L-glutamine, and penicillin/streptomycin.
(§2) Cells were suspended in medium with 1 µg/mL tetracycline and seeded in poly-D-lysine coated 96-well plate at 2.5 × 10^4 cells/well. After overnight culture, the cells were used for Ca^2+ influx assay.
(§3) The Ca^2+ influx assay was performed using a FLIPR Calcium 5 Assay Kit (Molecular Devices, Sunnyvale, CA, USA) according to previously reported methods with minor modifications. In brief, cells were incubated with 80 µL Ca^2+-chelating dye dissolved in assay buffer at pH 7.4 (Hanks’ Balanced Salt Solution containing 20 mmol/L of N-2-hydroxyethylpiperazine-N’-2-ethanesulfonic acid) at room temperature for 30 min. The plates were assayed using a FlexStation 3 Microplate Reader (Molecular Devices). The fluorescence intensity was traced entirely for 80 s. The baseline of fluorescence was measured for 20 s before adding 20 µL of test compound (final concentration, 10 µmol/L). The response was expressed as percentage activation using the relative fluorescence units (RFU) (% activation = 100 × ((RFUmax − RFUbaseline)/RFUbaseline) − 100). Furthermore, the activities of each test compound against several subfamilies of TRP channels were represented as the relative enhancement of Ca^2+ influx of each positive control, indicated as follows: 20 µmol/L of allyl isothiocyanate (an agonist of TRPA1), 2 µmol/L of capsaicin (an agonist of TRPV1), 4 µmol/L of GSK1016790A (an agonist of TRPV4), and 20 µmol/L of icilin (an agonist of TRPM8). The dose–response curve was fitted to the sigmoidal dose-response equation (top, the max response of each compound), and EC50 values were calculated using GraphPad Prism 7 software (GraphPad, San Diego, CA, USA).

human TRPV1 = target: T2, human TRPV1 (Homo sapiens, UniProt Q8NER1); test: Ca2+ influx assay in TRPV1-expressing T-REx-293 cells; format: cell-based; conditions: 10 µmol/L test compound, relative to 2 µmol/L capsaicin; for activation at 10 µM: T-REx-293, read-out: % of Activation Compared to Positive Control against Each Subfamily of TRP Channel TRPV1
T2 construct: Each full-length human TRPA1, TRPV1, TRPV4, and TRPM8 coding regions were introduced into a pcDNA4/TO vector; expressed in transfected cells; host or cells: T-REx-293 cells (tetracycline-induced, pcDNA4/TO vector)
T2 sequence (Q8NER1 whole entry): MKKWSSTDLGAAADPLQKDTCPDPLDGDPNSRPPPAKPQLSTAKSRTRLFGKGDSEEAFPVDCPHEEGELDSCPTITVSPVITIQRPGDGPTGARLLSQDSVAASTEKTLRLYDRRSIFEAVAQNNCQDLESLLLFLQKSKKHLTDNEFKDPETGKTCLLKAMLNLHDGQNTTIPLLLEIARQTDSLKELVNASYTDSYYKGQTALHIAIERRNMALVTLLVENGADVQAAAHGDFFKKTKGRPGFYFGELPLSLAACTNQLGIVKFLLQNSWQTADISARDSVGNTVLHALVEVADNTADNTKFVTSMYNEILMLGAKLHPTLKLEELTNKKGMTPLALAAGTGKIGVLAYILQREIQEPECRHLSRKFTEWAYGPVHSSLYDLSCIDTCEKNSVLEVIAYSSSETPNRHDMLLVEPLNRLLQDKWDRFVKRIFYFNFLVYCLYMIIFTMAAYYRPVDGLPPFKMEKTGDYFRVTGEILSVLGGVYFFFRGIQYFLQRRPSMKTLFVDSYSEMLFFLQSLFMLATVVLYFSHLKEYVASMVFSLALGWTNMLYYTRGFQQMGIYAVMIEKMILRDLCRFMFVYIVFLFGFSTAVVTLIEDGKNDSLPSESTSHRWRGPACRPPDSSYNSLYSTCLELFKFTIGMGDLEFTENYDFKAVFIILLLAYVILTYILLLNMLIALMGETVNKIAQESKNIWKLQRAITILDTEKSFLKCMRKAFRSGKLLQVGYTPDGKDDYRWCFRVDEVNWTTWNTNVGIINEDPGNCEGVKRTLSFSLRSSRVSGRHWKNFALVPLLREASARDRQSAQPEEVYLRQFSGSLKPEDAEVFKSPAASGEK
Experimental: as §1, §2, §3

human TRPV4 = target: T3, human TRPV4 (Homo sapiens, UniProt Q9HBA0); test: Ca2+ influx assay in TRPV4-expressing T-REx-293 cells; format: cell-based; conditions: 10 µmol/L test compound, relative to 4 µmol/L GSK1016790A; for activation at 10 µM: T-REx-293, read-out: % of Activation Compared to Positive Control against Each Subfamily of TRP Channel TRPV4
T3 construct: Each full-length human TRPA1, TRPV1, TRPV4, and TRPM8 coding regions were introduced into a pcDNA4/TO vector; expressed in transfected cells; host or cells: T-REx-293 cells (tetracycline-induced, pcDNA4/TO vector)
T3 sequence (Q9HBA0 whole entry): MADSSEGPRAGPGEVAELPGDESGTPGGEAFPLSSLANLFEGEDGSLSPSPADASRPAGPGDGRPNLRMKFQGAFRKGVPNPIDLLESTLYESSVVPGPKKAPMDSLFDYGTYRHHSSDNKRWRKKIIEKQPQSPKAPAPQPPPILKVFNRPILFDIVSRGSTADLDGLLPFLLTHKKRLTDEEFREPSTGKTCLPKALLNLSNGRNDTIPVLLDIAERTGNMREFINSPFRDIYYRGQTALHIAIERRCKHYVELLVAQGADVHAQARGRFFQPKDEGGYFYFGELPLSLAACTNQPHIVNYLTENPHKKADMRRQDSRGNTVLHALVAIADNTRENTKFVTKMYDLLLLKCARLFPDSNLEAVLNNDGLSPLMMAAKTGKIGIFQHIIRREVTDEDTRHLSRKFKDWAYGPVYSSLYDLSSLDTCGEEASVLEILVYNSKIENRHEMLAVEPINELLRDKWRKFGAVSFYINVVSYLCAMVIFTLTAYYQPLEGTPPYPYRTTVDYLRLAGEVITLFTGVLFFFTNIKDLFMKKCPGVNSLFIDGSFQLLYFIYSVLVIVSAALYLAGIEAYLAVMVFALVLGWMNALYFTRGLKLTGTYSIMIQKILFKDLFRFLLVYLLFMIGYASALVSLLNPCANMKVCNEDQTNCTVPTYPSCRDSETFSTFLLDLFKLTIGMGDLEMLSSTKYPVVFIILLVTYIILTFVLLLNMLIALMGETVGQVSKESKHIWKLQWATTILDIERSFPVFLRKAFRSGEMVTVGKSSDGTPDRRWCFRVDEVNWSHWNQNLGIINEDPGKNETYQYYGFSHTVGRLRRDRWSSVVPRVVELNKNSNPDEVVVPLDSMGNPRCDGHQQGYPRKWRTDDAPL
Experimental: as §1, §2, §3

human TRPM8 = target: T4, human TRPM8 (Homo sapiens, UniProt Q7Z2W7); test: Ca2+ influx assay in TRPM8-expressing T-REx-293 cells; format: cell-based; conditions: 10 µmol/L test compound, relative to 20 µmol/L icilin; for activation at 10 µM: T-REx-293, read-out: % of Activation Compared to Positive Control against Each Subfamily of TRP Channel TRPM8
T4 construct: Each full-length human TRPA1, TRPV1, TRPV4, and TRPM8 coding regions were introduced into a pcDNA4/TO vector; expressed in transfected cells; host or cells: T-REx-293 cells (tetracycline-induced, pcDNA4/TO vector)
T4 sequence (Q7Z2W7 whole entry): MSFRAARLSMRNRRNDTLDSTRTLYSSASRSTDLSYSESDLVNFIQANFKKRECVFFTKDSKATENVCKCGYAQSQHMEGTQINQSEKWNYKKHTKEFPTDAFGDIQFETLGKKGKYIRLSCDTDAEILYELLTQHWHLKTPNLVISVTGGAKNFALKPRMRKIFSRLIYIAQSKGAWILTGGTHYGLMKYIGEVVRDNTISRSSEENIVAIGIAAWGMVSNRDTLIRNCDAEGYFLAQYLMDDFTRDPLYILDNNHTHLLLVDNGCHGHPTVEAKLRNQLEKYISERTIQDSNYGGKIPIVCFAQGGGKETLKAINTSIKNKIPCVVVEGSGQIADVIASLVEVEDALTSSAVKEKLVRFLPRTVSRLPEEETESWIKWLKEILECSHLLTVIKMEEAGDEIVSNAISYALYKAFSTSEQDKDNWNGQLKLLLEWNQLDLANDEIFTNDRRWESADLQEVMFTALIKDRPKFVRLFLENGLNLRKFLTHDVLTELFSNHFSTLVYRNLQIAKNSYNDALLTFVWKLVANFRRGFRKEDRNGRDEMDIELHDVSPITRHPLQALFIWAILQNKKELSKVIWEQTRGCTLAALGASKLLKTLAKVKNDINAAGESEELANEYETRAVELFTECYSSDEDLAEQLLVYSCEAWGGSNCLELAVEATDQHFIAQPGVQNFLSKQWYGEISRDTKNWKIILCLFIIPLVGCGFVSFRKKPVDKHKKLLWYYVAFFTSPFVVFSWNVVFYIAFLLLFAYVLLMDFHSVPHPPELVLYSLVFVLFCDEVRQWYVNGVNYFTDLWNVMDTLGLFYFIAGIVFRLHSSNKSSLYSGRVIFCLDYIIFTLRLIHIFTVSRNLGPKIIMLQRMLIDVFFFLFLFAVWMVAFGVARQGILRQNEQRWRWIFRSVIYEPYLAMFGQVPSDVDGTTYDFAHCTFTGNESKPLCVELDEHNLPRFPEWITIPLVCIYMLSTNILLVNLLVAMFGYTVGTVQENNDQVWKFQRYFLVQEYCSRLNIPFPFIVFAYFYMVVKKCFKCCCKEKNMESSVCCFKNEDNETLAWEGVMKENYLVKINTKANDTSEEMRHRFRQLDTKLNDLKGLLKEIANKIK
Experimental: as §1, §2, §3

[1] = Qualitative non-targeted LC-HRMS analysis of AR compounds in rat plasma after oral AR or MBST; format: in vivo
Experimental: Extract powders of AR or MBST were suspended in distilled water and orally administered to rats having fasted for approximately 16 h. The dose of AR was set at 2 g/kg, and the MBST doses were set at 1 and 2 g/kg. 1 g/kg MBST contained 578 µg/kg, 147 µg/kg, 226 µg/kg, 426 µg/kg asarinin, sesamin, methyl kakuol, and amide A, respectively. The doses were chosen based on a previous pharmacological study of MBST using rats.
According to previous pharmacokinetic studies of herbal medicines, many of the components were quickly absorbed into the bloodstream, thereby providing the rationale for a sampling time at 1 h. Blood was centrifuged at 1200× g at 4 °C for 30 min to obtain plasma; then, the sample was stored at −80 °C until LC-HRMS analysis. […]
The plasma samples were collected at 1 h after MBST administration in case of both the qualitative (non-targeted) analysis and the quantitative (targeted) analysis.
The plasma samples of AR- or MBST-treated rats collected at 1 h post-administration were pretreated by deproteinization using methanol before the LC-HRMS analysis as follows: 100 µL plasma sample was mixed with 500 µL methanol, and the resultant solution was vortexed for 2 min. The mixture was centrifuged at 7000× g at 4 °C for 5 min. The supernatant was dried using a centrifugal evaporator, and the dried residue was dissolved in 100 μL of the initial LC mobile phase which is composed of 0.1 vol% formic acid in water/acetonitrile (99.9/0.1, v/v) and recentrifuged at 7000× g at 4 °C for 5 min. Finally, a 5 μL aliquot of the supernatant was injected into the LC-HRMS system comprised of an Acquity Ultra-Performance Liquid Chromatography System (Waters, Milford, MA, USA) and a Xevo G2-XS quadrupole time-of-flight MS (Waters) and was chromatographically separated using an ACQUITY UPLC HSS T3 column (2.1 × 150 mm I.D., 1.8-μm particle size; Waters) with an ACQUITY UPLC HSS T3 VanGuard Pre-column (2.1 mm × 5 mm I.D., 1.8-μm particle size; Waters) at 40 °C. The mobile phase consisted of solution A (0.1% formic acid, v/v) and solution B (acetonitrile) with a gradient of solution B (0.1%, 0 min; 99%, 24 min; v/v) at a flow rate of 0.4 mL/min. The analysis of the mass spectrometer fit with an electrospray ionization probe with sensitivity mode was performed for both the positive and negative ion mode. The resolution of the mass spectrometer was set at >20,000. For MS^E experiments, two acquisition functions with different collision energies were created: a low-energy function with a collision energy of 6 eV and a high-energy function with collision energy ranging from 15 to 40 eV.

Neoline
% of Activation Compared to Positive Control against Each Subfamily of TRP Channel TRPA1 (human TRPA1): 5%
% of Activation Compared to Positive Control against Each Subfamily of TRP Channel TRPV1 (human TRPV1): −0.4%
% of Activation Compared to Positive Control against Each Subfamily of TRP Channel TRPV4 (human TRPV4): 0.5%
% of Activation Compared to Positive Control against Each Subfamily of TRP Channel TRPM8 (human TRPM8): 5.0%

O.Oc1cc(O)c2c(c1)O[C@H](c1ccc(O)c(O)c1)[C@@H](O)C2 [Catechin]
% of Activation Compared to Positive Control against Each Subfamily of TRP Channel TRPA1 (human TRPA1): 6%
% of Activation Compared to Positive Control against Each Subfamily of TRP Channel TRPV1 (human TRPV1): −0.3%
% of Activation Compared to Positive Control against Each Subfamily of TRP Channel TRPV4 (human TRPV4): 0.3%
% of Activation Compared to Positive Control against Each Subfamily of TRP Channel TRPM8 (human TRPM8): 4.0%

CC=CC=CCCC=CC=CC(=O)NCC(C)C (single isomer, unassigned) [N-Isobutyl-2,4,8,10-dodecatetraenamide isomer]
AR-Treated Rat Plasma (detection of compound) ([1]; rat plasma 1 h after oral 2 g/kg AR, n = 1, LC-HRMS): + (The number of plus signs represents the sample number in which the compound was detected among AR-treated rat plasma (n = 1) and MBST-treated rat plasma (n = 3))
MBST-Treated Rat Plasma (detection of compound) ([1]; rat plasma 1 h after oral 2 g/kg MBST, n = 3, LC-HRMS): + + + (The number of plus signs represents the sample number in which the compound was detected among AR-treated rat plasma (n = 1) and MBST-treated rat plasma (n = 3))

C=C1[C@H]2C[C@@H]3[C@H]4N5C[C@@]6(C)[C@H]7[C@@H]5C[C@]3([C@@H]1O)[C@@](O)(C2)[C@]74C[C@@H](OC(=O)c1ccccc1)[C@@H]6O [Ignavine]
% of Activation Compared to Positive Control against Each Subfamily of TRP Channel TRPA1 (human TRPA1): 2%
% of Activation Compared to Positive Control against Each Subfamily of TRP Channel TRPV1 (human TRPV1): −0.2%
% of Activation Compared to Positive Control against Each Subfamily of TRP Channel TRPV4 (human TRPV4): −0.1%
% of Activation Compared to Positive Control against Each Subfamily of TRP Channel TRPM8 (human TRPM8): 1.8%

(1R,2S)-(−)-N-methylephedrine [reference compound]
% of Activation Compared to Positive Control against Each Subfamily of TRP Channel TRPA1 (human TRPA1): 3%
% of Activation Compared to Positive Control against Each Subfamily of TRP Channel TRPV1 (human TRPV1): −0.4%
% of Activation Compared to Positive Control against Each Subfamily of TRP Channel TRPV4 (human TRPV4): −0.1%
% of Activation Compared to Positive Control against Each Subfamily of TRP Channel TRPM8 (human TRPM8): 3.6%

Oc1cc(O)c2c(c1)O[C@H](c1ccc(O)c(O)c1)[C@H](O)C2 [Epicatechin]
activation at 10 µM (human TRPA1): 6%
activation at 10 µM (human TRPV1): 0%
activation at 10 µM (human TRPV4): 0.6%
activation at 10 µM (human TRPM8): 4.2%

CC(C(O)c1ccccc1)[N+](C)(C)[O-] (stereo not drawn) [Methylephedrine N-oxide]
% of Activation Compared to Positive Control against Each Subfamily of TRP Channel TRPA1 (human TRPA1): 21%
% of Activation Compared to Positive Control against Each Subfamily of TRP Channel TRPV1 (human TRPV1): 0.3%
% of Activation Compared to Positive Control against Each Subfamily of TRP Channel TRPV4 (human TRPV4): 1.8%
% of Activation Compared to Positive Control against Each Subfamily of TRP Channel TRPM8 (human TRPM8): 4.5%

CN[C@@H](C)[C@H](O)c1ccccc1 [Ephedrine, (1R,2S)-(−)-Ephedrine, reference compound]
activation at 10 µM (human TRPA1): 3%
activation at 10 µM (human TRPV1): -0.5%
activation at 10 µM (human TRPV4): -0.4%
activation at 10 µM (human TRPM8): 3.2%
